Patent publication US9586951B2 (FUJIFILM Corporation, priority 2013, dated 2017)

Molecular target: T1, ATM (Homo sapiens, UniProt Q13315)
T1 construct: detecting phosphorylation of Chk2 in a human non-small cell lung cancer cell line NCI-H460 (ATCC company); host or cells: NCI-H460 human non-small cell lung cancer cells
Assay: ATM inhibition test (phosphorylation of Chk2 generated by ionizing radiation, AlphaScreen SureFire)
Format: cell-based
Settings: phosphorylated Chk2 in NCI-H460 cells, ionizing radiation 8Gy, 1 hour after test compound treatment; read-out: ATM inhibitory activity
Outline: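 NCI-H460 cells, compound 1 h pre-treatment, 8Gy IR, further 1 h at 37° C in 5% CO2. Read-out: phospho-Chk2 via AlphaScreen SureFire. % inhibition relative to IR-induced signal window (irradiated vs non-irradiated drug-free wells).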

T1 sequence (Q13315 whole entry): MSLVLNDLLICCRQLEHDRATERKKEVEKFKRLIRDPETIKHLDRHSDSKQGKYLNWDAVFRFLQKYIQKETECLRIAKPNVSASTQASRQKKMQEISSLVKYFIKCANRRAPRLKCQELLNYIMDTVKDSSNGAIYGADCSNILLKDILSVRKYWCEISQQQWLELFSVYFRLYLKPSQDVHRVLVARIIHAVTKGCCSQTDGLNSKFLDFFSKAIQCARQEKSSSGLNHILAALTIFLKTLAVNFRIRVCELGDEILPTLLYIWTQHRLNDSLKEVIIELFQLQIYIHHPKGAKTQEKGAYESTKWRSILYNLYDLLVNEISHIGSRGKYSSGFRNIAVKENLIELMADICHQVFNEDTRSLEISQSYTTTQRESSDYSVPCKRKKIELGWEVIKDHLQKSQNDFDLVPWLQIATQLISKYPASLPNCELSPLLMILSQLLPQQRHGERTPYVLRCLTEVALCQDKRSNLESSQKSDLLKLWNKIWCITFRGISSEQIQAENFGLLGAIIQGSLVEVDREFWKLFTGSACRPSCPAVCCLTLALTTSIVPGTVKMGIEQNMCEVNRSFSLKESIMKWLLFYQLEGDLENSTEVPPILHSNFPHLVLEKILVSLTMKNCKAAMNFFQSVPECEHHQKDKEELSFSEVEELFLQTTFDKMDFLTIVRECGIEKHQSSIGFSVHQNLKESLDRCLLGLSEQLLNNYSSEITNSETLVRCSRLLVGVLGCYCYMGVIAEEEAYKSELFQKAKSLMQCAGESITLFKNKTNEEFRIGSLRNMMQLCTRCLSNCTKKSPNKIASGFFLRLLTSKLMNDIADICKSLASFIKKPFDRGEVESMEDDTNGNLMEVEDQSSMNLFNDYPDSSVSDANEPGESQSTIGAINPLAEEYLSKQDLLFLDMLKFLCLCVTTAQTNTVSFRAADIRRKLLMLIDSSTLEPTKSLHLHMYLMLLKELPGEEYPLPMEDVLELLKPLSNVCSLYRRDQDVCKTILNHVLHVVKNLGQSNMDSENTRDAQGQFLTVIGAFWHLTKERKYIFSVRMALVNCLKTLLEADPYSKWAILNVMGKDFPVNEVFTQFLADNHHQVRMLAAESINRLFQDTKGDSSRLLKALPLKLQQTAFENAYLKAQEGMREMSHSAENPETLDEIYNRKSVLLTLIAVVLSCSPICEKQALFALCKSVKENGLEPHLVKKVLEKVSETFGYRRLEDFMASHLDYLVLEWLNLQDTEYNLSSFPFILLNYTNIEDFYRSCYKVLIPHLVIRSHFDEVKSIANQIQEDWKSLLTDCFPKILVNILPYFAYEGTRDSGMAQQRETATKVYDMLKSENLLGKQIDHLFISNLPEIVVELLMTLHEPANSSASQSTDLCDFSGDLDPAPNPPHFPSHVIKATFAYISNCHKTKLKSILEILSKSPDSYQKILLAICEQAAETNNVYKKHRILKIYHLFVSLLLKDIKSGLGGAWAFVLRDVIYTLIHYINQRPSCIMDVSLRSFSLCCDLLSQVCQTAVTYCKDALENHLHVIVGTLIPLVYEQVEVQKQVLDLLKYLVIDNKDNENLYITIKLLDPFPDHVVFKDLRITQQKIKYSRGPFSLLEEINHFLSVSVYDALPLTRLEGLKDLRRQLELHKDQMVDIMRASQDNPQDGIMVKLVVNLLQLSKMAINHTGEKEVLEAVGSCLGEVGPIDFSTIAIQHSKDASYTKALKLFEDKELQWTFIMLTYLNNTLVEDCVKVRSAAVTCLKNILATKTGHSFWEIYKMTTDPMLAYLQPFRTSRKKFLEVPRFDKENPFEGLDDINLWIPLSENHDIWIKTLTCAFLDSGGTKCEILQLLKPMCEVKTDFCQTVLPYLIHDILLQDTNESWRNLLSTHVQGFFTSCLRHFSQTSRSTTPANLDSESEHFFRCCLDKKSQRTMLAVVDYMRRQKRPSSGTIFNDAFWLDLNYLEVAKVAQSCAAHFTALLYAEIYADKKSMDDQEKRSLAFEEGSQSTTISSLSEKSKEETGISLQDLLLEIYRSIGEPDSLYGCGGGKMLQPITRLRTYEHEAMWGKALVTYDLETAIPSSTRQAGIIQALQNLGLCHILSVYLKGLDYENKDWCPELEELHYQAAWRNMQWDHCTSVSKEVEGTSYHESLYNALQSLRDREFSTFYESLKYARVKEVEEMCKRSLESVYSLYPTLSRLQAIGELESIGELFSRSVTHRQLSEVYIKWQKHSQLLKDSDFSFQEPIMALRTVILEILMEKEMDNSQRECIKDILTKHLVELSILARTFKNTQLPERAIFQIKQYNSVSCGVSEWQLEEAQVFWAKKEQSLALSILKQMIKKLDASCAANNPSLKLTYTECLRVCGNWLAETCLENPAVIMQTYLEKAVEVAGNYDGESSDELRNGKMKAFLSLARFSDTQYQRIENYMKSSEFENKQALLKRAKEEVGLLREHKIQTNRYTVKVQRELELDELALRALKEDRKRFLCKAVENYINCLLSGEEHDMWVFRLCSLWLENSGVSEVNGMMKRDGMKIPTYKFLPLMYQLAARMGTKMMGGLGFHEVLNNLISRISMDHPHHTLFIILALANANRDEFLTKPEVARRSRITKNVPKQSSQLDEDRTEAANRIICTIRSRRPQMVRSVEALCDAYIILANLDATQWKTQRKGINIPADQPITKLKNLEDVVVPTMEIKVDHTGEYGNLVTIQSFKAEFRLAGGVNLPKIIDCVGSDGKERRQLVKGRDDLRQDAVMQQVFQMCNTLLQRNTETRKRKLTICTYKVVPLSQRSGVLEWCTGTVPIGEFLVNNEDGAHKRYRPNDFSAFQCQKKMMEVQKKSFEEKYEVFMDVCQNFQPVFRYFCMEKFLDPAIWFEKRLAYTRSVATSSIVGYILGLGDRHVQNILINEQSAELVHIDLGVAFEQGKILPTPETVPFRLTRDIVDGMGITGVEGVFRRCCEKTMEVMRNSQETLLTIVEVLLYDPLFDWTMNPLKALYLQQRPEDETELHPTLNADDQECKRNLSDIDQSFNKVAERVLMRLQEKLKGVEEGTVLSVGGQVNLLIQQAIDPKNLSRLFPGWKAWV

**Q.** With CC(C)(C)OC(=O)N1CCC(Nc2ccc3c(c2)Sc2cccc(-c4cc(N5CCOCC5)cc(=O)[nH]4)c2O3)CC1 [Example 4-8-3, tent-Butyl 4-((6-(4-morpholino-6-oxo-1,6-dihydropyridin-2-yl)phenoxathiin-2-yl)amino) piperidin-l-carboxylate] as the compound, how does the IC50 read?
**A.** 0.1 to 0.5 µM

**Q.** Which IC50 does the source give for COc1cncc(CNc2ccc3c(c2)Cc2cc(C)cc(-c4cc(N5CCOCC5)cc(=O)[nH]4)c2O3)c1 [Example 2-49-2, 6-(7-(((5-Methoxypyridin-3-yl)methyl)amino)-2-methyl-9H-xanthen-4-yl)-4-morpholinopyridin-2(1H)-one] here?
**A.** 0.1 to 0.5 µM

**Q.** With O=c1cc(N2CCOCC2)cc(-c2cccc3c2Oc2ccc(NCCCc4cccnc4)cc2C3)[nH]1 [Example 2-14-14, 4-Morpholino-6-(7-((3-(pyridin-3-yl)propyl)amino)-9H-xanthen-4-yl) pyridin-2(1H)-one] as the compound, how does the IC50 read?
**A.** 0.1 to 0.5 µM

**Q.** How did the IC50 turn out when CC(Nc1ccc2c(c1)Sc1cccc(-c3cc(N4CCOCC4)cc(=O)[nH]3)c1S2)c1cc(Cl)ncn1 (stereo not drawn) [Example 1-12-83, 6-(7-((1-(6-Chloropyrimidin-4-yl)ethyl)amino)thianthren-1-yl)-4-morpholino pyridin-2 (1H)-one] was run?
**A.** 0.1 to 0.5 µM

**Q.** With “6-(7-((4,4-Difluoropiperidin- 1-yl)methyl)-9H-xanthen-4- yl)-4-morpholino pyridin-2 (1H)-one [Example 2-2-39]” as the compound, how does the IC50 read?
**A.** < 0.1 µM

**Q.** With Cc1ccc(C(CCN2CCN(C)CC2)Nc2ccc3c(c2)Sc2cccc(-c4cc(N5CCOCC5)cc(=O)[nH]4)c2S3)nc1 (single isomer, unassigned) [Example 10-3-1, 6-(7-((3-(4-Methylpiperazin-1-yl)-1-(5-methylpyridin-2-yl)propyl)amino)thianthren-1-yl)-4-morpholino pyridin-2 (1H)-one] as the compound, how does the IC50 read?
**A.** < 0.1 µM

**Q.** CCOC(=O)CNc1ccc2c(c1)Sc1cccc(-c3cc(N4CCOCC4)cc(=O)[nH]3)c1S2 [Example 1-12-49, Ethyl 2-((6-(4-morpholino-6-oxo-1,6-dihydropyridin-2-yl)thianthren-2-yl)amino) acetate] was tested. Which IC50 did it give?
**A.** < 0.1 µM

**Q.** With CCCCN1CCC(Nc2ccc3c(c2)Cc2cccc(-c4cc(N5CCOCC5)cc(=O)[nH]4)c2O3)CC1C (stereo not drawn) [Example 2-19-2, 6-(7-((1-Butyl-2-methylpiperidin-4-yl)amino)-9H-xanthen-4-yl)-4-morpholinopyridin-2(1H)-one] as the compound, how does the IC50 read?
**A.** 0.5 to 2 µM

**Q.** Which IC50 does the source give for CCCC(Nc1ccc2c(c1)Sc1cccc(-c3cc(N4CCOCC4)cc(=O)[nH]3)c1S2)c1ccc(C)cn1 (stereo not drawn) [Example 1-12-119, 6-(7-((1-(5-Methylpyridin-2-yl)butyl)amino)thianthren-1-yl)-4-morpholino pyridin-2 (1H)-one] here?
**A.** 0.1 to 0.5 µM

**Q.** With Cc1cnc(C(CCN(C)C)Nc2ccc3c(c2)Cc2cccc(-c4cc(N5CCOCC5)cc(=O)[nH]4)c2O3)cn1 (single isomer, unassigned) [Example 12-4, 6-(7-((3-(Dimethylamino)-1-(5-methylpyrazin-2-yl)propyl)amino)-9H-xanthen-4-yl)-4-morpholinopyridin-2(1H)-one] as the compound, how does the IC50 read?
**A.** < 0.1 µM

**Q.** Which IC50 does the source give for Cc1ccc(C(CC2CCCCC2)Nc2ccc3c(c2)Sc2cccc(-c4cc(N5CCOCC5)cc(=O)[nH]4)c2S3)nc1 (stereo not drawn) [Example 1-12-129, 6-(7-((2-Cyclohexyl-1-(5-methylpyridin-2-yl)ethyl)amino)thianthren-1-yl)-4-morpholino pyridin-2(1H) one] here?
**A.** 0.5 to 2 µM

**Q.** How did the IC50 turn out when CC(C)(C)OC(=O)n1cc(-c2cncc(CNc3ccc4c(c3)Sc3cccc(-c5cc(N6CCOCC6)cc(=O)[nH]5)c3S4)c2)cn1 [Example 1-44-6, tert-Butyl 4-(5-(((6-(4-morpholino-6-oxo-1,6-dihydropyridin-2-yl)thianthren-2-yl)amino)methyl)pyridin-3-yl)-1H-pyrazole-1-carboxylate] was run?
**A.** < 0.1 µM

**Q.** For O=c1cc(N2CCOCC2)cc(-c2cccc3c2Sc2ccc(NC4CCN(Cc5ccncc5)CC4)cc2S3)[nH]1 [Example 1-24-20, 4-Morpholino-6-(7-((1-(pyridin-4-ylmethyl)piperidin-4-yl)amino)thianthren-1-yl)pyridin-2 (1H)-one], which IC50 is on record?
**A.** 0.1 to 0.5 µM

**Q.** For COc1ccc(CCN2CCC(Nc3ccc4c(c3)Cc3cccc(-c5cc(N6CCOCC6)cc(=O)[nH]5)c3O4)CC2)cc1 [Example 2-30-2, 6-(7-((1-(4-Methoxyphenethyl)piperidin-4-yl)amino)-9H-xanthen-4-yl)-4-morpholino pyridin-2 (1H)-one], which IC50 is on record?
**A.** 0.1 to 0.5 µM

**Q.** With COc1ccncc1CNc1ccc2c(c1)Sc1cccc(-c3cc(N4CCOCC4)cc(=O)[nH]3)c1S2 [Example 1-12-23, 6-(7-(((4-Methoxypyridin-3-yl)methyl)amino)thianthren-1-yl)-4-morpholino pyridin-2 (1H)-one] as the compound, how does the IC50 read?
**A.** 0.1 to 0.5 µM

**Q.** Which IC50 does the source give for COc1cnccc1CNc1ccc2c(c1)Cc1cccc(-c3cc(N4CCOCC4)cc(=O)[nH]3)c1O2 [Example 2-14-9, 6-(7-(((3-Methoxypyridin-4-yl)methyl)amino)-9H-xanthen-4-yl)-4-morpholino pyridin-2(1H)-one] here?
**A.** 0.1 to 0.5 µM

**Q.** For Cc1cc(CNc2ccc3c(c2)Sc2cccc(-c4cc(N5CCOCC5)cc(=O)[nH]4)c2S3)ccn1 [Example 1-44-3, 6-(7-(((2-Methylpyridin-4-yl)methyl)amino)thianthren-1-yl)-4-morpholino pyridin-2(1H)-one], which IC50 is on record?
**A.** 0.1 to 0.5 µM

**Q.** For O=c1cc(N2CCOCC2)cc(-c2cccc3c2Sc2ccc(NCCN4CCCOCC4)cc2S3)[nH]1 [Example 1-10-6, 6-(7-((2-(1,4-Oxazepan-4-yl)ethyl)amino)thianthren-1-yl)-4-morpholinopyridin-2(1H)-one], which IC50 is on record?
**A.** 0.1 to 0.5 µM

**Q.** With O=c1cc(N2CCOCC2)cc(-c2cccc3c2Sc2ccc(NC4CCC(N5CCOCC5)CC4)cc2S3)[nH]1 (stereo not drawn) [Example 1-36-1, 4-Morpholino-6-(7-((4-morpholinocyclohexyl)amino)thianthren-1-yl)pyridin-2(1H)-one] as the compound, how does the IC50 read?
**A.** 0.1 to 0.5 µM

**Q.** CC(CNC1CCCC1)Nc1ccc2c(c1)Sc1cccc(-c3cc(N4CCOCC4)cc(=O)[nH]3)c1S2 (stereo not drawn) [Example 1-13-8, 6-(7-((1-(Cyclopentylamino)propan-2-yl)amino)thianthren-1-yl)-4-morpholino pyridin-2 (1H)-one] was tested. Which IC50 did it give?
**A.** 0.1 to 0.5 µM

**Q.** O=c1cc(N2CCOCC2)cc(-c2cccc3c2Sc2ccc(N[C@H](COCc4ccccc4)CN4CCOCC4)cc2S3)[nH]1 [Example 1-59-2, (S)-6-(7-((1-(benzyloxy)-3-morpholinopropan-2-yl)amino)thianthren-1-yl)-4-morpholinopyridin-2(1H)-one] was tested. Which IC50 did it give?
**A.** 0.1 to 0.5 µM

**Q.** CC(CNc1ccc2c(c1)Sc1cccc(-c3cc(N4CCOCC4)cc(=O)[nH]3)c1S2)N1CCOCC1 (single isomer, unassigned) [Example 1-9-2-3, 4-morpholino-6-(7-((2-morpholinopropyl)amino)thianthren-1-yl)pyridin-2(1H)-one] was tested. Which IC50 did it give?
**A.** 0.1 to 0.5 µM

**Q.** How did the IC50 turn out when O=c1cc(N2CCOCC2)cc(-c2cccc3c2Oc2ccc(NC4CCC5(CC4)OCCO5)cc2C3)[nH]1 [Example 2-2-62, 6-(7-(1,4-Dioxaspiro[4.5]decan-8-ylamino)-9H-xanthen-4-yl)-4-morpholino pyridin-2(1H)-one] was run?
**A.** 0.1 to 0.5 µM

**Q.** With Cc1cccc(CN(CC(=O)O)c2ccc3c(c2)Cc2cccc(-c4cc(N5CCOCC5)cc(=O)[nH]4)c2O3)n1 [Example 2-17, 2-(((6-methylpyridin-2-yl)methyl)(5-(4-morpholino-6-oxo-1,6-dihydropyridin-2-yl)-9H-xanthen-2-yl)amino)acetic acid] as the compound, how does the IC50 read?
**A.** 0.5 to 2 µM

**Q.** How did the IC50 turn out when Cc1ccnc(C(C)Nc2ccc3c(c2)Cc2ccnc(-c4cc(N5CCOCC5)cc(=O)[nH]4)c2O3)c1 (stereo not drawn) [Example 2-42-5, 6-(7-((1-(4-Methylpyridin-2-yl)ethyl)amino)-5H-chromeno[2,3-c]pyridin-1-yl)-4-morpholinopyridin-2(1H)-one] was run?
**A.** 0.1 to 0.5 µM

**Q.** Which IC50 does the source give for CCOC(=O)CNc1ccc2c(c1)Cc1cccc(-c3cc(N4CCOCC4)cc(=O)[nH]3)c1O2 [Example 2-14-71, Ethyl 2-((5-(4-morpholino-6-oxo-1,6-dihydropyridin-2-yl)-9H-xanthen-2-yl)amino) acetate] here?
**A.** 0.1 to 0.5 µM

**Q.** How did the IC50 turn out when COc1ccncc1CN1CCC(Nc2ccc3c(c2)Sc2cccc(-c4cc(N5CCOCC5)cc(=O)[nH]4)c2S3)C1 (stereo not drawn) [Example 1-24-10, 6-(7-((1-((4-Methoxypyridin-3-yl)methyl)pyrrolidin-3-yl)amino)thianthren-1-yl)-4-morpholino pyridin-2(1H)-one] was run?
**A.** 0.1 to 0.5 µM

**Q.** O=c1cc(N2CCOCC2)cc(-c2cccc3c2Sc2ccc(NCCc4cccnc4)cc2S3)[nH]1 [Example 1-5, 4-morpholino-6-(7-((2-(pyridin-3-yl)ethyl)amino)thianthren-1-yl)pyridin-2(1H)-one] was tested. Which IC50 did it give?
**A.** 0.1 to 0.5 µM

**Q.** With COc1ncc(CNc2ccc3c(c2)Sc2cccc(-c4cc(N5CCOCC5)cc(=O)[nH]4)c2S3)cn1 [Example 1-12-10, 6-(7-(((2-Methoxypyrimidin-5-yl)methyl)amino)thianthren-1-yl)-4-morpholino pyridin-2(1H)-one] as the compound, how does the IC50 read?
**A.** 0.1 to 0.5 µM

**Q.** With CC(Nc1ccc2c(c1)Cc1cccc(-c3cc(N4CCOCC4)cc(=O)[nH]3)c1O2)c1ncc(CN2CCOCC2)cn1 (stereo not drawn) [Example 2-14-67, 4-Morpholino-6-(7-((1-(5-(morpholinomethyl)pyrimidin-2-yl)ethyl)amino)-9H-xanthen-4-yl)pyridin-2 (1H)-one] as the compound, how does the IC50 read?
**A.** 0.5 to 2 µM

**Q.** With CC(CN1CCO[C@@H](C)C1)Nc1ccc2c(c1)Sc1cccc(-c3cc(N4CCOCC4)cc(=O)[nH]3)c1S2 (stereo partly drawn) [Example 1-43-8, 6-(7-((4-((S)-2-Methylmorpholino)propan-2-yl)amino)thianthren-1-yl)-4-morpholino pyridin-2(1H)-one] as the compound, how does the IC50 read?
**A.** 0.5 to 2 µM

**Q.** How did the IC50 turn out when CCCCC(Nc1ccc2c(c1)Sc1cccc(-c3cc(N4CCOCC4)cc(=O)[nH]3)c1S2)[C@H](C)N (stereo partly drawn) [Example 1-20-3, 6-(7-(((2S)-2-Aminoheptan-3-yl)amino)thianthren-1-yl)-4-morpholino pyridin-2(1H)-one] was run?
**A.** 0.1 to 0.5 µM

**Q.** Which IC50 does the source give for CN(C)C1CCC(Nc2ccc3c(c2)Sc2cccc(-c4cc(N5CCOCC5)cc(=O)[nH]4)c2S3)CC1 (stereo not drawn) [Example 1-36-2, 6-(7-((4-(Dimethylamino)cyclohexyl)amino)thianthren-1-yl)-4-morpholinopyridin-2(1H)-one] here?
**A.** 0.1 to 0.5 µM
